Data as given in patent US20180055032A1, “ODORS FOR PSYLLID TRAPPING, REPELLING AND CONTROL” (The Regents of the University of California, priority 2011, published 2018).
Read-outs that look alike come from different tables or passages of the source.

Assays:
Assay type in all cases: cell-based, Diaphorina citri
[1] = test system: neuron 6B (rhinarial plate on flagellomere 6); experiment: single-sensillum electrophysiology, odor response of neuron 6B; conditions: for odor response (frequency of action potentials during stimulus minus baseline), 6B: Table 1, odor diluted to 1%, 50 μL in cartridge
[2] = test system: neuron 2A (rhinarial plate on flagellomere 2); experiment: single-sensillum electrophysiology, odor response of neuron 2A; conditions: for odor response (frequency of action potentials during stimulus minus baseline), 2A: Table 1, odor diluted to 1%, 50 μL in cartridge; on all read-outs here: key: 0, no response; +, >50 spikes/second; ++, >100 spikes/second; +++, >150 spikes/second
[3] = test system: neuron 4B (rhinarial plate on flagellomere 4)
[4] = test system: neuron 4C (rhinarial plate on flagellomere 4); experiment: single-sensillum electrophysiology, odor response of neuron 4C; conditions: for odor response (frequency of action potentials during stimulus minus baseline), 4C: Table 1, odor diluted to 1%, 50 μL in cartridge; on response to ultra-prolonged activators, 4C: key: 0, no response; +, >50 spikes/second; ++, >100 spikes/second; +++, >150 spikes/second
[5] = test system: neuron 2B (rhinarial plate on flagellomere 2); experiment: single-sensillum electrophysiology, odor response of neuron 2B; conditions: for odor response (frequency of action potentials during stimulus minus baseline), 2B: Table 1, odor diluted to 1%, 50 μL in cartridge; on response to ultra-prolonged activators, 2B: key: 0, no response; +, >50 spikes/second; ++, >100 spikes/second; +++, >150 spikes/second
[6] = test system: neuron 6C (rhinarial plate on flagellomere 6); experiment: single-sensillum electrophysiology, odor response of neuron 6C; conditions: for odor response (frequency of action potentials during stimulus minus baseline), 6C: Table 1, odor diluted to 1%, 50 μL in cartridge
[7] = test system: neuron 7B (rhinarial plate on flagellomere 7)
[8] = test system: neuron 4A (rhinarial plate on flagellomere 4); experiment: single-sensillum electrophysiology, odor response of neuron 4A; conditions: for odor response (frequency of action potentials during stimulus minus baseline), 4A: Table 1, odor diluted to 1%, 50 μL in cartridge
[9] = test system: neuron 7C (rhinarial plate on flagellomere 7); experiment: single-sensillum electrophysiology, odor response of neuron 7C; conditions: for odor response (frequency of action potentials during stimulus minus baseline), 7C: Table 1, odor diluted to 1%, 50 μL in cartridge
[10] = test system: neuron 7A (rhinarial plate on flagellomere 7); experiment: single-sensillum electrophysiology, odor response of neuron 7A; conditions: for odor response (frequency of action potentials during stimulus minus baseline), 7A: Table 1, odor diluted to 1%, 50 μL in cartridge; on all read-outs here: key: 0, no response; +, >50 spikes/second; ++, >100 spikes/second; +++, >150 spikes/second
[11] = test system: neuron 6A (rhinarial plate on flagellomere 6); experiment: single-sensillum electrophysiology, odor response of neuron 6A; conditions: for odor response (frequency of action potentials during stimulus minus baseline), 6A: Table 1, odor diluted to 1%, 50 μL in cartridge
[12] = test system: neuron 2C (rhinarial plate on flagellomere 2); experiment: single-sensillum electrophysiology, odor response of neuron 2C; conditions: for odor response (frequency of action potentials during stimulus minus baseline), 2C: Table 1, odor diluted to 1%, 50 μL in cartridge
[13] = Table 3, 10^−2 in paraffin oil, 50 μL, odor puff of 0.5 sec
[14] = Table 1, odor diluted to 1%, 50 μL in cartridge

Row | SMILES | odor response (frequency of action potentials during stimulus minus baseline), 6B [1] | odor response (frequency of action potentials during stimulus minus baseline), 2A [2] | odor response (frequency of action potentials during stimulus minus baseline), 4B [3, 14] | odor response (frequency of action potentials during stimulus minus baseline), 4C [4] | odor response (frequency of action potentials during stimulus minus baseline), 2B [5] | odor response (frequency of action potentials during stimulus minus baseline), 6C [6] | odor response (frequency of action potentials during stimulus minus baseline), 7B [7, 14] | odor response (frequency of action potentials during stimulus minus baseline), 4A [8] | odor response (frequency of action potentials during stimulus minus baseline), 7C [9] | odor response (frequency of action potentials during stimulus minus baseline), 7A [10] | odor response (frequency of action potentials during stimulus minus baseline), 6A [11] | odor response (frequency of action potentials during stimulus minus baseline), 2C [12] | further results
1 | C=C(C)[C@H]1CC=C(C)C(=O)C1 [(+)-carvone] | ++ (++, >100 spikes/second) | 0 | ++ (++, >100 spikes/second) | 0 | 0 | 0 | 0 | 0 | 0 | 0 | 0 | 0 | response to ultra-prolonged activators, 6B [1, 13]: ++ (++, >100 spikes/second); response to ultra-prolonged activators, 2A [2, 13]: 0; response to ultra-prolonged activators, 4B [3, 13]: ++ (++, >100 spikes/second); response to ultra-prolonged activators, 4C [4, 13]: 0; response to ultra-prolonged activators, 2B [5, 13]: 0; response to ultra-prolonged activators, 6C [6, 13]: 0; response to ultra-prolonged activators, 7B [7, 13]: 0; response to ultra-prolonged activators, 4A [8, 13]: 0; response to ultra-prolonged activators, 7C [9, 13]: 0; response to ultra-prolonged activators, 7A [10, 13]: 0; response to ultra-prolonged activators, 6A [11, 13]: 0; response to ultra-prolonged activators, 2C [12, 13]: 0
2 | C=CC(O)CCCCC (stereo not drawn) [1-octen-3-ol] | + (+, >50 spikes/second) | 0 | 0 | 0 | 0 | 0 | 0 | 0 | 0 | 0 | 0 | 0 | –
3 | Cc1ccc(C(C)C)cc1 [p-cymene] | ++ (++, >100 spikes/second) | 0 | +++ (+++, >150 spikes/second) | 0 | 0 | 0 | 0 | 0 | 0 | 0 | 0 | 0 | –
4 | CCC/C=C/C=O [E2-hexenal] | + (+, >50 spikes/second) | 0 | + (+, >50 spikes/second) | 0 | 0 | 0 | 0 | 0 | 0 | 0 | 0 | ++ (++, >100 spikes/second) | –
5 | O [water] | 0 | 0 | – | + (+, >50 spikes/second) | 0 | + (+, >50 spikes/second) | – | 0 | 0 | 0 | 0 | 0 | odor response (frequency of action potentials during stimulus minus baseline), 4B [3]: 0; odor response (frequency of action potentials during stimulus minus baseline), 7B [7]: 0
6 | CCCCCCCCCC=O [decanal] | ++ (++, >100 spikes/second) | 0 | +++ (+++, >150 spikes/second) | 0 | 0 | 0 | 0 | 0 | ++ (++, >100 spikes/second) | 0 | 0 | 0 | –
7 | CCCC(=O)OCC [ethyl butyrate] | ++ (++, >100 spikes/second) | 0 | +++ (+++, >150 spikes/second) | 0 | 0 | 0 | 0 | 0 | ++ (++, >100 spikes/second) | 0 | 0 | + (+, >50 spikes/second) | –
8 | CC1=CCC(=C(C)C)CC1 [terpinolene] | + (+, >50 spikes/second) | 0 | + (+, >50 spikes/second) | 0 | 0 | 0 | 0 | 0 | 0 | 0 | 0 | 0 | –
9 | CCCCCC(C)=O [2-heptanone] | + (+, >50 spikes/second) | 0 | + (+, >50 spikes/second) | 0 | 0 | 0 | 0 | 0 | 0 | 0 | 0 | + (+, >50 spikes/second) | –
